Measurements published in ChEMBL document CHEMBL4483862, “Open-source discovery of chemical leads for next-generation chemoprotective antimalarials” (2018).

Test system: Plasmodium berghei
Assay: Luciferase/luciferin-expressing antifolate-resistant parasites were used to infect a culture of HepG2 cells that were pre-incubated with compounds. Infected hepatocytes emit light due to the luciferase reaction. Assay results are presented as the percent inhibition of light emission compared to control. […]
Assay type: functional
Conditions: sporozoite; for IC90: read-out: LUCIFERASE INFECTION ASSAY - IC90

Structure (SMILES): CC(C)Cc1ccc(C(=O)CC(Sc2ccccc2N)c2cccc([N+](=O)[O-])c2)cc1 (configuration not stated)
- IC50 (FFLUC_HILL_SLOPE 39.9, FFLUC_R_SQUARED 0.525, PBLUC_HILL_SLOPE 1.28, PBLUC_R_SQUARED 0.727, read-out: LUCIFERASE INFECTION ASSAY - IC50): 0.511 µM
- IC90: 2.86 µM

Structure (SMILES): CCCn1c(NC(=O)c2ccccc2SCc2c(C)noc2C)nc2ccccc21
- IC50 (FFLUC_HILL_SLOPE 30, FFLUC_R_SQUARED 0.401, HEPG2TOX_HILL_SLOPE 7.23, HEPG2TOX_R_SQUARED 0.341, PBLUC_HILL_SLOPE 15.1, PBLUC_R_SQUARED 0.618, read-out: LUCIFERASE INFECTION ASSAY - IC50): 8.55 µM
- IC90: 9.89 µM

Structure (SMILES): Cc1ccc(N2C(=N)C(c3nc4ccccc4s3)C(c3ccccc3)C2=O)cc1 (configuration not stated)
- IC50 (FFLUC_HILL_SLOPE 38.3, FFLUC_R_SQUARED 0.217, HEPG2TOX_HILL_SLOPE 0.75, HEPG2TOX_R_SQUARED 0.479, read-out: LUCIFERASE INFECTION ASSAY - IC50): > 10 µM
- IC90: > 10 µM

Structure (SMILES): O=C(Oc1ccc(Cl)cc1Sc1cc(Cl)ccc1OC(=O)c1cccs1)c1cccs1
- IC50 (FFLUC_HILL_SLOPE 35.2, FFLUC_R_SQUARED 0.259, read-out: LUCIFERASE INFECTION ASSAY - IC50): > 6.5 µM
- IC90: > 6.5 µM

Structure (SMILES): CSc1sc(C(=O)OC2CCCCC2)c2c1C(=O)CC(C)(C)C2
- IC50 (FFLUC_HILL_SLOPE 35.3, FFLUC_R_SQUARED 0.0335, read-out: LUCIFERASE INFECTION ASSAY - IC50): > 9.36 µM
- IC90: > 9.36 µM

Structure (SMILES): CC1CCC(C(C)C)C(N(Cc2ccccc2)C(=O)c2cccc3ccccc23)C1 (configuration not stated)
- IC50 (FFLUC_HILL_SLOPE 35.1, FFLUC_R_SQUARED 0.0345, HEPG2TOX_HILL_SLOPE 5.62, HEPG2TOX_R_SQUARED 0.422, PBLUC_HILL_SLOPE 0.939, PBLUC_R_SQUARED 0.258, read-out: LUCIFERASE INFECTION ASSAY - IC50): 6.39 µM
- IC90: > 8.26 µM

Structure (SMILES): CCOC(=O)c1c(C2CC2)csc1NC(=O)COC(=O)c1cc(C)n(-c2cc(Cl)ccc2OC)c1C
- IC50 (FFLUC_HILL_SLOPE 35.2, FFLUC_R_SQUARED 0.269, read-out: LUCIFERASE INFECTION ASSAY - IC50): > 10 µM
- IC90: > 10 µM

Structure (SMILES): CCOC(=O)c1ccc(N2CCCCC2)c(NC(=O)c2sc3ccccc3c2Cl)c1
- IC50 (FFLUC_HILL_SLOPE 35, FFLUC_R_SQUARED 0.23, read-out: LUCIFERASE INFECTION ASSAY - IC50): > 7.45 µM
- IC90: > 7.45 µM

Structure (SMILES): Cn1c(CSc2cccs2)n[nH]c1=S
- IC50 (FFLUC_HILL_SLOPE 40, FFLUC_R_SQUARED 0.0342, read-out: LUCIFERASE INFECTION ASSAY - IC50): > 13.6 µM
- IC90: > 13.6 µM

Structure (SMILES): O=C1C=C(c2ccccc2)C(=O)N1c1cccc(Cl)c1
- IC50 (FFLUC_HILL_SLOPE 29.2, FFLUC_R_SQUARED 0.289, PBLUC_HILL_SLOPE 11, PBLUC_R_SQUARED 0.329, read-out: LUCIFERASE INFECTION ASSAY - IC50): 11.3 µM
- IC90: > 11.6 µM

Structure (SMILES): COc1cc(/C=C2\COc3c(Cl)cc(Cl)cc3C2=O)cc(OC)c1O
- IC50 (FFLUC_HILL_SLOPE 30.3, FFLUC_R_SQUARED 0.145, HEPG2TOX_HILL_SLOPE 11.5, HEPG2TOX_R_SQUARED 0.166, PBLUC_HILL_SLOPE 35.9, PBLUC_R_SQUARED 0.493, read-out: LUCIFERASE INFECTION ASSAY - IC50): 6.74 µM
- IC90: 7.17 µM

Structure (SMILES): CCOc1ccc(-n2c(SCC(=O)Nc3cc(C(C)(C)C)nn3-c3ccccc3)nc3ccccc32)cc1
- IC50 (FFLUC_HILL_SLOPE 35.3, FFLUC_R_SQUARED 0.234, PBLUC_HILL_SLOPE 11.6, PBLUC_R_SQUARED 0.616, read-out: LUCIFERASE INFECTION ASSAY - IC50): 8.73 µM
- IC90: > 10 µM

Structure (SMILES): Cc1cc([N+](=O)[O-])cc(S(=O)(=O)N(C)Cc2ccc(C(=O)NC3CC3)cc2)c1C
- IC50 (FFLUC_HILL_SLOPE 30.1, FFLUC_R_SQUARED 0.449, PBLUC_HILL_SLOPE 4.67, PBLUC_R_SQUARED 0.152, read-out: LUCIFERASE INFECTION ASSAY - IC50): 4.27 µM
- IC90: 6.84 µM

Structure (SMILES): O=C(NC1CCSc2ccc(Cl)cc21)c1cc(Br)c[nH]1 (configuration not stated)
- IC50 (FFLUC_HILL_SLOPE 30.3, FFLUC_R_SQUARED 0.512, PBLUC_HILL_SLOPE 1.67, PBLUC_R_SQUARED 0.28, read-out: LUCIFERASE INFECTION ASSAY - IC50): 5.71 µM
- IC90: > 10 µM

Structure (SMILES): OCCNc1ncnc2c1c(-c1ccccc1)cn2-c1ccc(Cl)cc1
- IC50 (FFLUC_HILL_SLOPE 35.7, FFLUC_R_SQUARED 0.282, read-out: LUCIFERASE INFECTION ASSAY - IC50): > 10 µM
- IC90: > 10 µM

Structure (SMILES): Cc1cc(NC(=O)c2ccc(CSCc3c(Cl)cccc3Cl)cc2)no1
- IC50 (FFLUC_HILL_SLOPE 28.8, FFLUC_R_SQUARED 0.69, PBLUC_HILL_SLOPE 8.08, PBLUC_R_SQUARED 0.529, read-out: LUCIFERASE INFECTION ASSAY - IC50): 0.997 µM
- IC90: 1.31 µM

Structure (SMILES): CCOC(=O)c1c(S(=O)(=O)Nc2cccc(C(F)(F)F)c2)c(-c2ccccc2)n(-c2ccccc2)c1C
- IC50 (FFLUC_HILL_SLOPE 40.4, FFLUC_R_SQUARED 0.424, read-out: LUCIFERASE INFECTION ASSAY - IC50): > 6.24 µM
- IC90: > 6.24 µM

Structure (SMILES): CC(C)Cn1c(N)c(C(=O)COC(=O)c2cc(-c3cccs3)nc3ccccc23)c(=O)n(C)c1=O
- IC50 (FFLUC_HILL_SLOPE 33.5, FFLUC_R_SQUARED 0.479, PBLUC_HILL_SLOPE 4.72, PBLUC_R_SQUARED 0.427, read-out: LUCIFERASE INFECTION ASSAY - IC50): 2.03 µM
- IC90: 3.23 µM

Structure (SMILES): O=C(Nc1ccc(-n2nncc2-c2ccccc2)cc1)c1ccc(S(=O)(=O)N2CCCCC2)cc1
- IC50 (FFLUC_HILL_SLOPE 38.4, FFLUC_R_SQUARED 0.244, HEPG2TOX_HILL_SLOPE 8, HEPG2TOX_R_SQUARED 0.798, PBLUC_HILL_SLOPE 2.57, PBLUC_R_SQUARED 0.825, read-out: LUCIFERASE INFECTION ASSAY - IC50): 4.06 µM
- IC90: 9.56 µM

Structure (SMILES): CS/C(Nc1cccc(C(F)(F)F)c1)=C(/C#N)S(=O)(=O)c1ccc(Cl)cc1
- IC50 (FFLUC_HILL_SLOPE 30.1, FFLUC_R_SQUARED 0.771, HEPG2TOX_HILL_SLOPE 1.92, HEPG2TOX_R_SQUARED 0.988, PBLUC_HILL_SLOPE 2.74, PBLUC_R_SQUARED 0.0319, read-out: LUCIFERASE INFECTION ASSAY - IC50): 4.34 µM
- IC90: > 7.62 µM

Structure (SMILES): O=C(Nc1ccc(OC(F)(F)F)cc1)Sc1ccc(Cl)s1
- IC50 (FFLUC_HILL_SLOPE 30.4, FFLUC_R_SQUARED 0.438, HEPG2TOX_HILL_SLOPE 8.9, HEPG2TOX_R_SQUARED 0.733, PBLUC_HILL_SLOPE 2, PBLUC_R_SQUARED 0.693, read-out: LUCIFERASE INFECTION ASSAY - IC50): 3.61 µM
- IC90: > 9.33 µM

Structure (SMILES): CCOC(=O)c1c(-c2ccccc2)csc1NC(=O)c1cc(-c2ccco2)nc2ccccc12
- IC50 (FFLUC_HILL_SLOPE 28.5, FFLUC_R_SQUARED 0.474, PBLUC_HILL_SLOPE 2.84, PBLUC_R_SQUARED 0.759, read-out: LUCIFERASE INFECTION ASSAY - IC50): 4.48 µM
- IC90: 9.72 µM

Structure (SMILES): Cc1onc(-c2ccccc2)c1-c1csc(Nc2cc(C(F)(F)F)cc(C(F)(F)F)c2)n1
- IC50 (FFLUC_HILL_SLOPE 38.4, FFLUC_R_SQUARED 0.44, HEPG2TOX_HILL_SLOPE 9.25, HEPG2TOX_R_SQUARED 0.968, PBLUC_HILL_SLOPE 81.8, PBLUC_R_SQUARED 0.627, read-out: LUCIFERASE INFECTION ASSAY - IC50): 3.78 µM
- IC90: 3.88 µM

Structure (SMILES): CC(C)NC(=O)c1c(NC(=O)c2cccc(C(F)(F)F)c2)nc2ccccn12
- IC50 (FFLUC_HILL_SLOPE 39.4, FFLUC_R_SQUARED 0.293, HEPG2TOX_HILL_SLOPE 0.926, HEPG2TOX_R_SQUARED 0.794, PBLUC_HILL_SLOPE 4.31, PBLUC_R_SQUARED 0.785, read-out: LUCIFERASE INFECTION ASSAY - IC50): 0.583 µM
- IC90: 0.971 µM

Structure (SMILES): Cc1cc(-c2cccc3[nH]c(C(F)(F)F)nc23)nn1C(=O)c1ccc([N+](=O)[O-])cc1
- IC50 (FFLUC_HILL_SLOPE 35.5, FFLUC_R_SQUARED 0.403, HEPG2TOX_HILL_SLOPE 0.192, HEPG2TOX_R_SQUARED 0.301, PBLUC_HILL_SLOPE 13.6, PBLUC_R_SQUARED 0.349, read-out: LUCIFERASE INFECTION ASSAY - IC50): 9.27 µM
- IC90: > 10 µM

Structure (SMILES): C=CCn1c(Sc2nc(C)nc3sc4c(c23)CCC4)nnc1-c1ccco1
- IC50 (FFLUC_HILL_SLOPE 38.3, FFLUC_R_SQUARED 0.259, read-out: LUCIFERASE INFECTION ASSAY - IC50): > 10 µM
- IC90: > 10 µM

Structure (SMILES): CCCCNC(=O)c1c(NC(=O)COc2ccccc2)nc2ccc(C)cn12
- IC50 (FFLUC_HILL_SLOPE 32.7, FFLUC_R_SQUARED 0.34, HEPG2TOX_HILL_SLOPE 7.48, HEPG2TOX_R_SQUARED 0.362, PBLUC_HILL_SLOPE 14.2, PBLUC_R_SQUARED 0.182, read-out: LUCIFERASE INFECTION ASSAY - IC50): 7.25 µM
- IC90: 8.47 µM

Structure (SMILES): CCCc1ccc(-c2nc(-c3ccccc3)no2)cc1
- IC50 (FFLUC_HILL_SLOPE 35.1, FFLUC_R_SQUARED 0.438, PBLUC_HILL_SLOPE 1.27, PBLUC_R_SQUARED 0.957, read-out: LUCIFERASE INFECTION ASSAY - IC50): 0.0177 µM
- IC90: 0.0999 µM

Structure (SMILES): CCCOc1ccc(C=C(c2nc3ccccc3s2)c2nc3ccccc3s2)c(O)c1
- IC50 (FFLUC_HILL_SLOPE 30.4, FFLUC_R_SQUARED 0.313, read-out: LUCIFERASE INFECTION ASSAY - IC50): > 10 µM
- IC90: > 10 µM

Structure (SMILES): CC(C)N(c1ccccc1)c1ccc(NC(=O)COC(=O)c2ccc(Cl)c(S(=O)(=O)N(Cc3ccccc3)c3ccc(Cl)cc3)c2)cc1
- IC50 (FFLUC_HILL_SLOPE 30.3, FFLUC_R_SQUARED 0.617, PBLUC_HILL_SLOPE 4.64, PBLUC_R_SQUARED 0.334, read-out: LUCIFERASE INFECTION ASSAY - IC50): 9.19 µM
- IC90: > 10 µM

Structure (SMILES): O=S(=O)(Nc1cc(C(F)(F)F)cc(C(F)(F)F)c1)c1ccccc1Oc1ccc(Cl)cc1Cl
- IC50 (FFLUC_HILL_SLOPE 40.5, FFLUC_R_SQUARED 0.634, read-out: LUCIFERASE INFECTION ASSAY - IC50): > 6.22 µM
- IC90: > 6.22 µM
